Structures are written as SMILES. A value given as a limit tells only on which side of the number the result lay.

Holding throughout (experiment): relative IC50 (inflection point of fitted viability curve, relative to fitted max inhibition); higher = less sensitive
Holding throughout (conditions): 72 h

Test [1] relates to NK-YS (IL-2 2.5 ng/mL). The method, then: (§1)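 Drug sensitivity and resistance testing: 5 concentrations over a 10,000-fold range, 72 h at 37 °C, viability by CellTiter-Glo normalised to DMSO and benzethonium chloride controls. IC50 is the inflection point of a logistic fit (min fixed at 0, max fitted), so it is relative to the fitted maximal inhibition. Kept only where fitted max inhibition is at least 50%.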

The subject of test [2] is DERL-7 (IL-2 2.5 ng/mL). The method, then:
as §1

Test [3] concerns NK-92 (IL-2 2.5 ng/mL). How it is done: as §1
The test system of test [4] is KHYG-1 (IL-2 2.5 ng/mL). The method, then: as §1
The test system of test [5] is KAI3 (IL-2 2.5 ng/mL). The method, then:
as §1

For test [6], the system named is YT (IL-2 2.5 ng/mL). How it is done:
as §1

In test [7] the test system is SNK-6 (IL-2 2.5 ng/mL). The method, then: as §1
The test system of test [8] is NKL (IL-2 2.5 ng/mL). The method, then: as §1
Test [9] has as its system normal primary NK cells, pool 3 (3 donors) (IL-2 2.5 ng/mL). How it is done: as §1
Test [10] relates to normal primary NK cells, pool 1 (3 donors) (IL-2 2.5 ng/mL). The method, then:
as §1

Test [11] concerns normal primary NK cells, pool 1 (3 donors), resting (IL-2 0 ng/mL). The method, then: as §1
For test [12], the system named is IMC-1 (IL-2 20 ng/mL). The method, then: as §1
Test [13] relates to normal primary NK cells, pool 2 (3 donors) (IL-2 2.5 ng/mL). How it is done: as §1

For `CCn1nnc2c(N3CCOCC3)nc(-c3ccc(NC(=O)Nc4ccc(C(=O)N5CCN(C)CC5)cc4)cc3)nc21` [PKI-402], the relative IC50 (commonly the concentration halfway between the upper and lower plateau of the fitted curve) came to 0.154 µM in [1]; 0.0891 µM in test [2]; 0.428 µM in [3]; 0.316 µM in [4]; 0.0909 µM in test [5]; 0.208 µM in test [6]. For the same compound, the “relative IC50” value amounted to 0.21 µM in [7] and 0.0971 µM in test [8].

Consider `O=C(NOC[C@H](O)CO)c1ccc(F)c(F)c1Nc1ccc(I)cc1F`, for which the “relative IC50” value is 0.01 µM in test [2]; over 1 µM in test [9]; over 1 µM in test [3]; 0.0316 µM in test [4]; 0.0199 µM in test [8].

For the compound `CS(=O)(=O)N1CCc2c(-c3cnc(N)nc3)nc(N3CCOCC3)nc21`, the “relative IC50” value in test [1] amounted to 0.94 µM; in test [2], 1 µM; in test [3], 0.316 µM; in test [5] it was 0.384 µM; in test [6] it was 1.29 µM; in test [8] it was 0.451 µM.

As for `COc1cc2nccc(Oc3ccc(NC(=O)C4(C(=O)Nc5ccc(F)cc5)CC4)cc3)c2cc1OC` [Cabozantinib], the “relative IC50” value in test [10] was over 1 µM.

Take `COc1cc2ncnc(Nc3ccc(F)c(Cl)c3)c2cc1NC(=O)/C=C/CN1CCCCC1` [Dacomitinib]: in test [11], the “relative IC50” value was 0.404 µM.

`Nc1nc(NC2CC2)cc(-c2cccc(Cl)c2Cl)n1` [TH588]: the “relative IC50” value in test [1] came to 0.854 µM; in test [2], 7.9 µM; in test [3], 1.55 µM; in [4], 2.05 µM; in [5] it was 1.73 µM; in [6], 2.12 µM. Moreover, the “relative IC50” value in test [7] is 0.809 µM; in test [12], 6.38 µM; in test [8] it was 2.18 µM.

With `CCN(CC)CCCC(C)Nc1ccnc2cc(Cl)ccc12` (stereo not drawn) [Chloroquine], the figures for the “relative IC50” value in test [9], in test [12] and in test [13] were 9.06 µM, 33.4 µM and 14.3 µM, respectively.

As for `COc1cc2c(Oc3ccc(NC(=O)C4(C(=O)Nc5ccc(F)cc5)CC4)cc3F)ccnc2cc1OCCCN1CCOCC1` [Foretinib], the results for the “relative IC50” value in [1] and in test [2] were 0.191 µM and 0.369 µM, respectively.

Take `Nc1cc(F)ccc1NC(=O)/C=C/c1cnn(C/C=C/c2ccccc2)c1` [RGFP966]: the “relative IC50” value amounted to 1.53 µM in test [2]; 1.68 µM in test [3]; 1.94 µM in [5]; 1.46 µM in test [7]; 1.35 µM in [8].

For the compound `COc1ccccc1S(=O)(=O)Nc1ccc2c(c1)CN(C)C(=O)N2` [PFI-1], the “relative IC50” value in test [1] worked out at 1.31 µM; in test [2], 1.08 µM; in [4], 1.64 µM; in test [6], 2.31 µM; in test [12], 2.97 µM; in test [13], 1.78 µM. The “relative IC50” value in test [8] was 1.08 µM.

Regarding `C/C(=C\c1csc(C)n1)[C@@H]1C[C@@H]2O[C@]2(C)CCC[C@H](C)[C@H](O)[C@@H](C)C(=O)C(C)(C)[C@@H](O)CC(=O)O1` [Patupilone], the “relative IC50” value in test [1] turned out to be 0.0117 µM; in [2], 0.00274 µM; in [3] it was 0.0068 µM; in test [4], 0.0152 µM; in test [5], 0.00677 µM; in test [6], 0.00842 µM. The “relative IC50” value amounted to 0.00261 µM in [7], 0.00336 µM in [12] and 0.0124 µM in test [8].

On to `COc1cc2c(N3CCN(C(=O)Nc4ccc(OC(C)C)cc4)CC3)ncnc2cc1OCCCN1CCCCC1` [Tandutinib], for which the “relative IC50” value in test [9] was over 1 µM.

As to `CO[C@@]12[C@H](COC(N)=O)C3=C(C(=O)C(C)=C(N)C3=O)N1C[C@@H]1N[C@@H]12` [Mitomycin C], the “relative IC50” value in [1] came out at 0.35 µM; in test [11], 1.63 µM; in test [9] it was 1.41 µM; in test [3], 1.51 µM; in test [4] it was 0.432 µM; in test [5], 1.06 µM. Also, the “relative IC50” value in [6] worked out at 3.2 µM; in test [7] it was 0.423 µM; in [12] it was 2.71 µM; in test [13], 1.01 µM; in test [8] it was 0.152 µM.

Values taken from the supplement of paper PMC5908809.
